Legend:
Assay type in all cases: in vivo
[1] = tested on: NOD model mice; experiment: Organic indexes (spleen, submaxillary gland, thymus) in NOD model mice
[2] = tested on: NOD mice; experiment: Saliva amount in NOD mice; details: for Saliva amount in NOD mice, Pre-administration: baseline before administration
Experimental: Before measurement, mice were anesthetized via intraperitoneal injection of 0.05 ml of 2.4% pentobarbital sodium, and the satisfactory anesthesia was smooth breathing, corneal reflex disappearance and limb muscle relaxation. After complete anesthesia, a mouse was placed in slightly tilted trendelenburg position, and its body was kept warm using the heater. The mouse was injected intraperitoneally with 0.1 ml of 0.025 mg/ml Pilocarpine, and 5 min later, a weighed cotton ball was placed in the mouth of the mouse for 10 min. After taking the ball out, the saliva weight of mice was measured by the wet weight method.
Therapeutic effects of on Sjögren's syndrome CP-25 in NOD mice.

[3] = tested on: Sjögren's syndrome model mice (C57BL/6 female mice); experiment: Saliva amount in induced Sjögren's syndrome model mice (wet weight method after pilocarpine); details: for Saliva amount in SS mice, One week after administration / Saliva amount in SS mice, Two weeks after administration / Saliva amount in SS mice, Pre-administration: Example 1, C57BL/6 SS mice; for Saliva amount in SS mice, Pre-administration / Saliva amount, Pre-administration: baseline before administration; for Saliva amount, One week after: one week of administration; for Saliva amount, Two weeks after: two weeks of administration
Experimental: […] Water intake, saliva amount and submaxillary gland pathological analysis and score were determined respectively, on the day before administration, the 7th day and 14th day after administration. The therapeutic effects of CP-25 on Sjögren's syndrome were evaluated by comparison of changes of each index before and after treatment. 2 Sjögren's syndrome model mice: C57BL/6 female mice housed in a SPF environment with successful modeling (The animal model was made via repeated multi-point intracutaneous injection of submaxillary gland homogenate of homologous mice to tail and back of mice). The animal model was made via repeated multi-point intracutaneously injection of submaxillary gland homogenate of homologous mice to tail and back of mice, and the mice with successful modeling were randomly assigned to each group according to comprehensive conditions of mice. At the same time, the average weight and status of each group of mice should be as close as possible. […] […] High dose of said pharmaceutical should be incubated for half an hour before use. Before measurement, mice were anesthetized via intraperitoneal injection of 0.05 ml of 2.4% pentobarbital sodium, and the satisfactory anesthesia was smooth breathing, corneal reflex disappearance and limb muscle relaxation. After complete anesthesia, a mouse was placed in slightly tilted trendelenburg position, and its body was kept warm using the heater. The mouse was injected intraperitoneally with 0.1 ml of 0.025 mg/ml Pilocarpine, and 5 min later, a weighed cotton ball was placed in the mouth of the mouse for 10 min. After taking the ball out, the saliva weight of mice was measured by the wet weight method.

[4] = tested on: spleen CD4+ IL-17A+ T lymphocytes; experiment: Spleen CD4+ IL-17A+ T lymphocytes in NOD model mice (FIG. 13)
Text: FIG. 13 Effects of CP-25 on spleen CD4^+ IL-17A^+ T lymphocytes in NOD model mice.

[5] = tested on: Sjögren's syndrome model mice; experiment: Water intake in Sjögren's syndrome model mice; details: therapeutic mice, after a week of administration; model control always tends to rise
Experimental: In this invention, low dose (17.5 mg/kg), medium dose (35 mg/kg) and high dose (70 mg/kg) of CP-25 were respectively administrated by gavage to each of randomly assigned group of Sjögren's syndrome model mice for two weeks. Water intake, saliva amount and submaxillary gland pathological analysis and score were determined respectively, on the day before administration, the 7th day and 14th day after administration. The therapeutic effects of CP-25 on Sjögren's syndrome were evaluated by comparison of changes of each index before and after treatment.
However, the water intake in mice of model control group always tends to rise.

[6] = tested on: SS mice; experiment: Organic indexes (spleen, submaxillary gland, thymus) in SS mice
Text: 2 Sjögren's syndrome model mice: C57BL/6 female mice housed in a SPF environment with successful modeling (The animal model was made via repeated multi-point intracutaneous injection of submaxillary gland homogenate of homologous mice to tail and back of mice). The animal model was made via repeated multi-point intracutaneously injection of submaxillary gland homogenate of homologous mice to tail and back of mice, and the mice with successful modeling were randomly assigned to each group according to comprehensive conditions of mice. At the same time, the average weight and status of each group of mice should be as close as possible. Paeoniflorin-6′-O-benzenesulfonate, white crystalline powder, purity 98.5%, was dissolved in trace ethanol (75 mg of CP-25 was soluble in 40 μl of ethanol), and then sodium carboxymethylcellulose was added to formulate a suspension of CP-25. Corresponding dose gradient, low dose (17.5 mg/kg), medium dose (35 mg/kg) and high dose (70 mg/kg) of said pharmaceutical should be prepared before medication, stored in 4° C. refrigerator for use. High dose of said pharmaceutical should be incubated for half an hour before use.

[7] = tested on: spleen CD4+ CD25+FOXP3+ T lymphocytes; experiment: Spleen CD4+ CD25+ FOXP3+ T lymphocytes in SS model mice (FIG. 5, 6); details: FIG. 6
Text: FIG. 5 Effects of CP-25 on spleen CD4^+ CD25^+FOXP3^+ T lymphocytes in SS model mice.
FIG. 6 Effects of CP-25 on spleen CD4^+ CD25^+FOXP3^+ T lymphocytes in SS model mice.

[8] = tested on: spleen B lymphocyte; experiment: Spleen B lymphocyte proliferation in SS model mice (FIG. 3)
Text: FIG. 3 Effects of CP-25 on spleen B lymphocyte proliferation in SS model mice.

[9] = SS model mice, 17.5 mg/kg by gavage
[10] = SS model mice, 35 mg/kg by gavage

SMILES: C[C@@]12C[C@@]3(O)O[C@H](O1)C1(COC(=O)c4ccccc4)[C@@H]3CC12OC1OC(COS(=O)(=O)c2ccccc2)C(O)C(O)C1O (stereo partly drawn) [CP-25, Paeoniflorin-6′-O-benzenesulfonate]
- Spleen index ([1]; 17.5 mg/kg): 9.5 ± 4.2 mg/g
- Submaxillary gland index ([1]; 17.5 mg/kg): 4.5 ± 0.8^ mg/g
- Thymus index ([1]; 17.5 mg/kg): 1.3 ± 0.7 mg/g
- Spleen index ([1]; 35 mg/kg): 4.2 ± 0.6 mg/g
- Submaxillary gland index ([1]; 35 mg/kg): 4.3 ± 0.6 mg/g
- Thymus index ([1]; 35 mg/kg): 1.1 ± 0.6 mg/g
- Spleen index ([1]; 70 mg/kg): 4.3 ± 0.7 mg/g
- Submaxillary gland index ([1]; 70 mg/kg): 4.2 ± 0.6 mg/g
- Thymus index ([1]; 70 mg/kg): 1.4 ± 0.5 mg/g
- Increasing of submaxillary gland index (in words) ([1]; Example 5): significantly suppress the increasing
- Saliva amount in NOD mice, One week after administration ([2]; 17.5 mg/kg): 15.20 ± 1.04 mg/each mouse/10 min
- Saliva amount in NOD mice, Two weeks after administration ([2]; 17.5 mg/kg): 14.25 ± 1.46 mg/each mouse/10 min
- Saliva amount in NOD mice, One week after administration ([2]; 35 mg/kg): 15.60 ± 1.50 mg/each mouse/10 min
- Saliva amount in NOD mice, Two weeks after administration ([2]; 35 mg/kg): 15.25 ± 1.36 mg/each mouse/10 min
- Saliva amount in NOD mice, One week after administration ([2]; 70 mg/kg): 18.20 ± 1.58^#Δ mg/each mouse/10 min
- Saliva amount in NOD mice, Two weeks after administration ([2]; 70 mg/kg): 18.25 ± 1.50 mg/each mouse/10 min
- Saliva amount in NOD mice, Pre-administration ([2]; dose group 17.5 mg/kg): 19.50 ± 1.38 mg/each mouse/10 min
- Saliva amount in NOD mice, Pre-administration ([2]; dose group 35 mg/kg): 19.33 ± 3.20 mg/each mouse/10 min
- Saliva amount in NOD mice, Pre-administration ([2]; dose group 70 mg/kg): 19.51 ± 1.87 mg/each mouse/10 min
- Saliva amount (in words) ([2]; NOD model mice, Example 4): significantly increase
- Onset time of curative effects versus comparators ([2]; NOD model mice, Example 4, saliva amount): earlier than that of TGP, or Pae
- Saliva amount in SS mice, One week after administration ([3]; 17.5 mg/kg): 17.83 ± 2.14 mg/each mouse/10 min
- Saliva amount in SS mice, Two weeks after administration ([3]; 17.5 mg/kg): 17.67 ± 2.07^ mg/each mouse/10 min
- Saliva amount in SS mice, One week after administration ([3]; 35 mg/kg): 18.33 ± 1.97 mg/each mouse/10 min
- Saliva amount in SS mice, Two weeks after administration ([3]; 35 mg/kg): 23.17 ± 2.64 mg/each mouse/10 min
- Saliva amount in SS mice, One week after administration ([3]; 70 mg/kg): 25.67 ± 1.63 mg/each mouse/10 min
- Saliva amount in SS mice, Two weeks after administration ([3]; 70 mg/kg): 26.83 ± 1.47 mg/each mouse/10 min
- Saliva amount in SS mice, Pre-administration ([3]; dose group 17.5 mg/kg): 22.67 ± 3.27 mg/each mouse/10 min
- Saliva amount in SS mice, Pre-administration ([3]; dose group 35 mg/kg): 23.01 ± 2.37 mg/each mouse/10 min
- Saliva amount in SS mice, Pre-administration ([3]; dose group 70 mg/kg): 22.75 ± 3.67 mg/each mouse/10 min
- Saliva amount, One week after [3, 9]: 17.83 ± 2.14 mg/10 min
- Saliva amount, Two weeks after [3, 9]: 17.67 ± 2.07^ mg/10 min
- Saliva amount, One week after [3, 10]: 18.33 ± 1.97 mg/10 min
- Saliva amount, Two weeks after [3, 10]: 23.17 ± 2.64 mg/10 min
- Saliva amount, One week after ([3]; SS model mice, 70 mg/kg): 25.67 ± 1.63 mg/10 min
- Saliva amount, Two weeks after ([3]; SS model mice, 70 mg/kg): 26.83 ± 1.47 mg/10 min
- Saliva amount, Pre-administration ([3]; SS model mice, dose group 17.5 mg/kg by gavage): 22.67 ± 3.27 mg/10 min
- Saliva amount, Pre-administration ([3]; SS model mice, dose group 35 mg/kg by gavage): 23.01 ± 2.37 mg/10 min
- Saliva amount, Pre-administration ([3]; SS model mice, dose group 70 mg/kg): 22.75 ± 3.67 mg/10 min
- Curative effect judged on saliva amount after one week of medication ([3]; SS model mice, high dose of CP-25, TGP, Pae, HCQ at the doses of Table 3): had curative effects
- Efficacy judged on saliva amount with medication extended to two weeks ([3]; SS model mice, two weeks of medication): more significant efficacy
- Saliva amount (in words) ([3]; Sjögren's syndrome mice, Example 1): significantly increase
- Onset time of curative effects versus comparators ([3]; Sjögren's syndrome mice, Example 1, saliva amount): earlier than that of TGP, Pae or HCQ
- Ratio of spleen CD4+ IL-17A+ Th17 lymphocytes [4]: significantly inhibit
- Water intake [5]: begins to drop off
- Spleen index ([6]; 17.5 mg/kg): 9.00 ± 1.61 mg/g
- Submaxillary gland index ([6]; 17.5 mg/kg): 3.56 ± 0.62 mg/g
- Thymus index ([6]; 17.5 mg/kg): 1.06 ± 0.31 mg/g
- Spleen index ([6]; 35 mg/kg): 8.92 ± 1.33 mg/g
- Submaxillary gland index ([6]; 35 mg/kg): 3.32 ± 0.66 mg/g
- Thymus index ([6]; 35 mg/kg): 1.31 ± 0.42 mg/g
- Spleen index ([6]; 70 mg/kg): 8.51 ± 1.42 mg/g
- Submaxillary gland index ([6]; 70 mg/kg): 3.24 ± 0.57 mg/g
- Thymus index ([6]; 70 mg/kg): 1.03 ± 0.44 mg/g
- Increasing of submaxillary gland index (in words) ([6]; Example 2): significantly suppress the increasing
- Ratio of CD4+ CD25+FOXP3+ Treg lymphocytes [7]: increase
- Spleen B lymphocyte proliferation [8]: significantly inhibit
